# Laboratory results published in ChEMBL document CHEMBL1150110, “Three novel protease inhibitors from a natural bloom of the cyanobacterium Microcystis aeruginosa” (J Nat Prod, 2002).
# The source made the active and inactive calls. No cut-off for these calls is given here.
# Legend:
# [1] = Inhibition of trypsin at 45.5 ug/mL preincubated for 5 mins before addition of substrate measured after 30 mins
# [2] = Inhibition of chymotrypsin at 45.5 ug/mL preincubated for 5 mins before addition of substrate measured after 30 mins
# [3] = Inhibition of trypsin preincubated for 5 mins before addition of substrate measured after 30 mins
Compound,inhibition [1],Activity [2],IC50 [3]
CC(C)C[C@@H](NC(=O)[C@@H](O)Cc1ccc(O)cc1)C(=O)N1[C@@H]2C[C@H](O)CC[C@@H]2C[C@H]1C(N)=O,15%,–,–
CC[C@H](C)[C@@H]1NC(=O)[C@H](Cc2ccc(O)cc2)N(C)C(=O)[C@H](Cc2ccccc2)N2C(=O)[C@H](CC[C@H]2O)NC(=O)[C@H](CCCNC(=N)N)NC(=O)[C@@H](NC(=O)[C@H](CC(=O)O)NC(C)=O)[C@@H](C)OC1=O [MICROPEPTIN E1964],–,inactive,4.2 µg/mL
CCCC(=O)N[C@@H](CC(=O)O)C(=O)N[C@@H]1C(=O)N[C@@H](CCCNC(=N)N)C(=O)N[C@H]2CC[C@@H](O)N(C2=O)[C@@H](Cc2ccccc2)C(=O)N(C)[C@@H](Cc2ccc(O)cc2)C(=O)N[C@@H]([C@@H](C)CC)C(=O)O[C@@H]1C [MICROPEPTIN EI992],–,inactive,3.8 µg/mL
